Test system: 186277-243-T-J2-PDC complex spheroid viability
Test: Anticancer human tumor 186277-243-T-J2-PDC patient-derived colon adenocarcinoma cell line growth inhibition [POLQ]
Conditions: for IC50: curve of first compound; for viability, T/C: stronger effect = lower value
Procedure, shortened: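 Patient-derived tumour cells were co-cultured with HUVEC and mesenchymal stem cells as multicellular spheroids at 37 °C. They were treated with POLQ inhibitors (novobiocin, ART-558, RP6685) alone or combined with other agents. Top concentrations were at or near clinical Cmax (otherwise 10 microM; SN-38 at 1 microM), decreasing in half-log steps.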

[1] = second compound 0.0316 µM, first compound 0.0316 µM
[2] = second compound 0.0316 µM, first compound 0.1 µM
[3] = second compound 0.0316 µM, first compound 0.316 µM
[4] = second compound 0.0316 µM, first compound 1 µM
[5] = second compound 0.0316 µM, first compound 3.16 µM
[6] = second compound 0.0316 µM, first compound 10 µM
[7] = second compound 0.1 µM, first compound 0.0316 µM
[8] = second compound 0.1 µM, first compound 0.1 µM
[9] = second compound 0.1 µM, first compound 0.316 µM
[10] = second compound 0.1 µM, first compound 1 µM
[11] = second compound 0.1 µM, first compound 3.16 µM
[12] = second compound 0.1 µM, first compound 10 µM
[13] = second compound 0.316 µM, first compound 0.0316 µM
[14] = second compound 0.316 µM, first compound 0.1 µM
[15] = second compound 0.316 µM, first compound 0.316 µM
[16] = second compound 0.316 µM, first compound 1 µM
[17] = second compound 0.316 µM, first compound 3.16 µM
[18] = second compound 0.316 µM, first compound 10 µM
[19] = second compound 1 µM, first compound 0.0316 µM
[20] = second compound 1 µM, first compound 0.1 µM
[21] = second compound 1 µM, first compound 0.316 µM
[22] = second compound 1 µM, first compound 1 µM
[23] = second compound 1 µM, first compound 3.16 µM
[24] = second compound 1 µM, first compound 10 µM
[25] = second compound 3.16 µM, first compound 0.0316 µM
[26] = second compound 3.16 µM, first compound 0.1 µM
[27] = second compound 3.16 µM, first compound 0.316 µM
[28] = second compound 3.16 µM, first compound 1 µM
[29] = second compound 3.16 µM, first compound 3.16 µM
[30] = second compound 3.16 µM, first compound 10 µM
[31] = second compound 10 µM, first compound 0.0316 µM
[32] = second compound 10 µM, first compound 0.1 µM
[33] = second compound 10 µM, first compound 0.316 µM
[34] = second compound 10 µM, first compound 1 µM
[35] = second compound 10 µM, first compound 3.16 µM
[36] = second compound 10 µM, first compound 10 µM
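Note: spheroids exposed to compounds for seven days.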
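Throughout, for viability, T/C: 100% = DMSO vehicle control viability.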

Nc1ccn(C2OC(CO)C(O)C2(F)F)c(=O)n1 (stereo unspecified) + Cc1cccc(N(C)C(=O)C2C(O)CCN2c2nc(C)cc(C(F)(F)F)c2C#N)c1
IC50 (second compound 0.0316 µM): < 31.6 nM
IC50 (second compound 0.1 µM): < 31.6 nM
IC50 (second compound 0.316 µM): < 31.6 nM
IC50 (second compound 1 µM): < 31.6 nM
IC50 (second compound 3.16 µM): < 31.6 nM
IC50 (second compound 10 µM): < 31.6 nM
viability, T/C [1]: 7.07%
viability, T/C [2]: 6.17%
viability, T/C [3]: 6.28%
viability, T/C [4]: 7.91%
viability, T/C [5]: 7.05%
viability, T/C [6]: 6.44%
viability, T/C [7]: 7.12%
viability, T/C [8]: 6.99%
viability, T/C [9]: 7.56%
viability, T/C [10]: 8.01%
viability, T/C [11]: 7.17%
viability, T/C [12]: 6.37%
viability, T/C [13]: 7.95%
viability, T/C [14]: 7.37%
viability, T/C [15]: 7%
viability, T/C [16]: 7.74%
viability, T/C [17]: 7.97%
viability, T/C [18]: 5.75%
viability, T/C [19]: 8.61%
viability, T/C [20]: 6.36%
viability, T/C [21]: 7.13%
viability, T/C [22]: 7.45%
viability, T/C [23]: 8.07%
viability, T/C [24]: 6.24%
viability, T/C [25]: 6.68%
viability, T/C [26]: 6.49%
viability, T/C [27]: 6.57%
viability, T/C [28]: 7.84%
viability, T/C [29]: 7.96%
viability, T/C [30]: 6.36%
viability, T/C [31]: 6.88%
viability, T/C [32]: 5.82%
viability, T/C [33]: 5.86%
viability, T/C [34]: 6.97%
viability, T/C [35]: 6.86%
viability, T/C [36]: 5.93%

O=c1[nH]cc(F)c(=O)[nH]1 + Cc1cccc(N(C)C(=O)C2C(O)CCN2c2nc(C)cc(C(F)(F)F)c2C#N)c1
IC50 (second compound 0.0316 µM): 9400 nM
IC50 (second compound 0.1 µM): > 10000 nM
IC50 (second compound 0.316 µM): 9140 nM
IC50 (second compound 1 µM): 9770 nM
IC50 (second compound 3.16 µM): > 10000 nM
IC50 (second compound 10 µM): 8830 nM
viability, T/C [1]: 103%
viability, T/C [2]: 99.5%
viability, T/C [3]: 95.4%
viability, T/C [4]: 112%
viability, T/C [5]: 75.5%
viability, T/C [6]: 48.5%
viability, T/C [7]: 105%
viability, T/C [8]: 99.9%
viability, T/C [9]: 98.9%
viability, T/C [10]: 98.3%
viability, T/C [11]: 73.5%
viability, T/C [12]: 52.2%
viability, T/C [13]: 87.2%
viability, T/C [14]: 91.6%
viability, T/C [15]: 94.4%
viability, T/C [16]: 116%
viability, T/C [17]: 76.5%
viability, T/C [18]: 47.8%
viability, T/C [19]: 102%
viability, T/C [20]: 102%
viability, T/C [21]: 104%
viability, T/C [22]: 103%
viability, T/C [23]: 79.9%
viability, T/C [24]: 49.4%
viability, T/C [25]: 112%
viability, T/C [26]: 108%
viability, T/C [27]: 88.5%
viability, T/C [28]: 99.7%
viability, T/C [29]: 81.8%
viability, T/C [30]: 52.1%
viability, T/C [31]: 105%
viability, T/C [32]: 110%
viability, T/C [33]: 100%
viability, T/C [34]: 111%
viability, T/C [35]: 77.6%
viability, T/C [36]: 46.7%

CC1COCCN1c1cc(C2(O)CC3CCC(C2)O3)c2cnn(-c3ccn[nH]3)c2n1 (stereo unspecified) + COC1C(OC(N)=O)C(O)C(Oc2ccc3c(O)c(NC(=O)c4ccc(O)c(CC=C(C)C)c4)c(=O)oc3c2C)OC1(C)C
IC50 (second compound 0.0316 µM): 37.5 nM
IC50 (second compound 0.1 µM): 39.6 nM
IC50 (second compound 0.316 µM): 40.3 nM
IC50 (second compound 1 µM): 37.2 nM
IC50 (second compound 3.16 µM): 41.8 nM
IC50 (second compound 10 µM): < 31.6 nM
viability, T/C [1]: 56.8%
viability, T/C [2]: 11%
viability, T/C [3]: 4.13%
viability, T/C [4]: 2.97%
viability, T/C [5]: 3.3%
viability, T/C [6]: 3.36%
viability, T/C [7]: 60%
viability, T/C [8]: 8.95%
viability, T/C [9]: 3.87%
viability, T/C [10]: 2.7%
viability, T/C [11]: 3.24%
viability, T/C [12]: 3.18%
viability, T/C [13]: 60%
viability, T/C [14]: 12.3%
viability, T/C [15]: 4.98%
viability, T/C [16]: 2.92%
viability, T/C [17]: 3.45%
viability, T/C [18]: 3.48%
viability, T/C [19]: 56.2%
viability, T/C [20]: 12.9%
viability, T/C [21]: 3.79%
viability, T/C [22]: 2.66%
viability, T/C [23]: 3.46%
viability, T/C [24]: 3.76%
viability, T/C [25]: 63%
viability, T/C [26]: 9.45%
viability, T/C [27]: 4.01%
viability, T/C [28]: 2.86%
viability, T/C [29]: 3.33%
viability, T/C [30]: 3.12%
viability, T/C [31]: 47.8%
viability, T/C [32]: 7.48%
viability, T/C [33]: 4.86%
viability, T/C [34]: 2.78%
viability, T/C [35]: 4.14%
viability, T/C [36]: 3.73%
